Data: patent publication US12589111B2, “Pt(IV) chemotherapeutic prodrug and controlled release thereof for treatment of tumors” (PEKING UNIVERSITY, priority 2020, dated 2026)

Test system: not listed separately
Test: Release of the corresponding platinum drug of Pt(IV)-(Suc)2 after γ-ray irradiation
Assay type: physicochemical
Settings: deoxygenated, 60Co γ-rays; UPLC-MS, 195Pt NMR
Procedure: 2.6 Detection of the Release of the Corresponding Platinum Drug of Pt(IV)-(Suc)2
Pt(IV)-(Suc)2 was dissolved in 1 mL of deuterium water ([…]), and the mixture was adjusted to a pH of 7 with NaOH. After deoxygenation, the solution was exposed to 40 kGy γ-ray irradiation (^60Co source, 200 Gy/min, 200 min).
Determination of product by UPLC-MS (FIG. 3, b c)
After deoxygenation, the solution was exposed to 1 kGy γ-ray irradiation (^60Co source, 100 Gy/min, 10 min).

| Structure (SMILES) | product released by γ-ray irradiation |
| --- | --- |
| [NH2][Pt]1([NH2])([O]C(=O)CCC(=O)O)([O]C(=O)CCC(=O)O)[O]C(=O)C2(CCC2)C(=O)[O]1 [carboPt(IV)-(Suc)2] | release the corresponding Pt(II) drugs |
| N.N.O=C(O)CCC(=O)[O][Pt]([Cl])([Cl])[O]C(=O)CCC(=O)O [cisPt(IV)-(Suc)2] | release the corresponding Pt(II) drugs |
| NC1CCCCC1N.O=C(O)CCC(=O)[O][Pt]1([O]C(=O)CCC(=O)O)[O]C(=O)C(=O)[O]1 [oxaliPt(IV)-(Suc)2] | released product was oxaliplatin |

Test system: not listed separately
Test: Determination of release efficiency by UPLC-MS after X-ray irradiation
Assay type: physicochemical
Settings: 10 μM in pure water, deoxygenated, 60 Gy X-ray (4 Gy/min, 15 min); released divalent platinum drug by UPLC-MS
Procedure: 2.7 Determination of Release Efficiency by UPLC-MS
Corresponding tetravalent platinum complexes (compounds 1-66) were dissolved in DMSO to obtain tetravalent platinum stock solutions (10 mM), and then diluted to 10 μM with pure water. After deoxygenation, the solution was subjected to 60 Gy X-ray irradiation (4 Gy/min, 15 min). The reaction crude product was analyzed by UPLC-MS, and the released product was determined to be the corresponding divalent platinum drug by UPLC-MS. The concentration of the divalent platinum drug was determined by the external standard curve of the platinum drug, and the release efficiency was calculated.

| Structure (SMILES) | Release efficiency [%] |
| --- | --- |
| CC(=O)[O][Pt]([NH2])([NH2])([Cl])([Cl])[O]C(C)=O [Compound 1] | 83.2 |
| CC(=O)[O][Pt]([NH2])([NH2])([Cl])([Cl])[O]C(=O)CCCc1ccc(I)cc1 [Compound 2] | 85.7 |
| CC(=O)[O][Pt]([NH2])([NH2])([Cl])([Cl])[O]C(=O)CCCCCN1C(=O)C=CC1=O [Compound 3] | 80.3 |
| CCCCCCCCCCCCCCCCNC(=O)[O][Pt]([NH2])([NH2])([Cl])([Cl])[O]C(C)=O [Compound 4] | 79.5 |
| CCCCCCCCCCCCCCCCCCNC(=O)[O][Pt]([NH2])([NH2])([Cl])([Cl])[O]C(C)=O [Compound 5] | 73.9 |
| CC(=O)[O][Pt]([NH2])([NH2])([Cl])([Cl])[O]C(=O)CCC(=O)O [Compound 8] | 75.5 |
| [NH2][Pt]([NH2])([Cl])([Cl])([O]C(=O)CCC(=O)O)[O]C(=O)CCC(=O)O [Compound 9] | 75.6 |
| [NH2][Pt]([NH2])([Cl])([Cl])([O]C(=O)CCCc1ccc(I)cc1)[O]C(=O)CCC(=O)O [Compound 10] | 76.7 |
| [NH2][Pt]([NH2])([Cl])([Cl])([O]C(=O)CCCCCN1C(=O)C=CC1=O)[O]C(=O)CCC(=O)O [Compound 11] | 73.9 |
| CCCCCCCCCCCCCCCCNC(=O)[O][Pt]([NH2])([NH2])([Cl])([Cl])[O]C(=O)CCC(=O)O [Compound 12] | 77.4 |
| CCCCCCCCCCCCCCCCCCNC(=O)[O][Pt]([NH2])([NH2])([Cl])([Cl])[O]C(=O)CCC(=O)O [Compound 13] | 82.7 |
| CC(=O)[O][Pt]([NH2])([NH2])([Cl])([Cl])[O]C(=O)CN(C)C [Compound 16] | 71.9 |
| CN(C)CC(=O)[O][Pt]([NH2])([NH2])([Cl])([Cl])[O]C(=O)CCCc1ccc(I)cc1 [Compound 17] | 79.6 |
| CN(C)CC(=O)[O][Pt]([NH2])([NH2])([Cl])([Cl])[O]C(=O)CCCCCN1C(=O)C=CC1=O [Compound 18] | 73.5 |
| CCCCCCCCCCCCCCCCNC(=O)[O][Pt]([NH2])([NH2])([Cl])([Cl])[O]C(=O)CN(C)C [Compound 19] | 78.5 |
| CCCCCCCCCCCCCCCCCCNC(=O)[O][Pt]([NH2])([NH2])([Cl])([Cl])[O]C(=O)CN(C)C [Compound 20] | 83.7 |
| CCCCCCCCCCCCCCCCNC(=O)[O][Pt]1([NH2])([NH2])([O]C(C)=O)[O]C(=O)C2(CCC2)C(=O)[O]1 [Compound 26] | 69.4 |
| N.N.O=C(O)CCC(=O)[O][Pt]1([O]C(=O)CCC(=O)O)[O]C(=O)C2(CCC2)C(=O)[O]1 [Compound 31] | 65.9 |
| N.N.O=C(O)CCC(=O)[O][Pt]1([O]C(=O)CCCc2ccc(I)cc2)[O]C(=O)C2(CCC2)C(=O)[O]1 [Compound 32] | 64.6 |

| Structure (SMILES) | Release efficiency [%] |
| --- | --- |
| N.N.O=C(O)CCC(=O)[O][Pt]1([O]C(=O)CCCCCN2C(=O)C=CC2=O)[O]C(=O)C2(CCC2)C(=O)[O]1 [Compound 33] | 67.7 |
| CCCCCCCCCCCCCCCCCCNC(=O)[O][Pt]1([O]C(=O)CCC(=O)O)[O]C(=O)C2(CCC2)C(=O)[O]1.N.N [Compound 35] | 73.5 |
| CN(C)CC(=O)[O][Pt]1([O]C(=O)CCCc2ccc(I)cc2)[O]C(=O)C2(CCC2)C(=O)[O]1.N.N [Compound 39] | 71.0 |
| CN(C)CC(=O)[O][Pt]1([O]C(=O)CCCCCN2C(=O)C=CC2=O)[O]C(=O)C2(CCC2)C(=O)[O]1.N.N [Compound 40] | 68.9 |
| CCCCCCCCCCCCCCCCCCNC(=O)[O][Pt]1([O]C(=O)CN(C)C)[O]C(=O)C2(CCC2)C(=O)[O]1.N.N [Compound 42] | 66.3 |
| N[C@@H]1CCCC[C@H]1N.O=C(O)CCC(=O)[O][Pt]1([O]C(=O)CCC(=O)O)[O]C(=O)C(=O)[O]1 [Compound 53] | 76.7 |
| N[C@@H]1CCCC[C@H]1N.O=C(O)CCC(=O)[O][Pt]1([O]C(=O)CCCc2ccc(I)cc2)[O]C(=O)C(=O)[O]1 [Compound 54] | 75.3 |
| N[C@@H]1CCCC[C@H]1N.O=C(O)CCC(=O)[O][Pt]1([O]C(=O)CCCCCN2C(=O)C=CC2=O)[O]C(=O)C(=O)[O]1 [Compound 55] | 81.9 |
| CCCCCCCCCCCCCCCCNC(=O)[O][Pt]1([O]C(=O)CCC(=O)O)[O]C(=O)C(=O)[O]1.N[C@@H]1CCCC[C@H]1N [Compound 56] | 80.2 |
| CCCCCCCCCCCCCCCCCCNC(=O)[O][Pt]1([O]C(=O)CCC(=O)O)[O]C(=O)C(=O)[O]1.N[C@@H]1CCCC[C@H]1N [Compound 57] | 76.3 |
| CCCCCCCCCCCCCCCC(=O)[O][Pt]1([O]C(=O)CCC(=O)O)[O]C(=O)C(=O)[O]1.N[C@@H]1CCCC[C@H]1N [Compound 58] | 81.3 |
| CCCCCCCCCCCCCCCCCC(=O)[O][Pt]1([O]C(=O)CCC(=O)O)[O]C(=O)C(=O)[O]1.N[C@@H]1CCCC[C@H]1N [Compound 59] | 82.0 |
| CC(=O)[O][Pt]1([O]C(=O)CN(C)C)[O]C(=O)C(=O)[O]1.N[C@@H]1CCCC[C@H]1N [Compound 60] | 81.3 |
| CN(C)CC(=O)[O][Pt]1([O]C(=O)CCCc2ccc(I)cc2)[O]C(=O)C(=O)[O]1.N[C@@H]1CCCC[C@H]1N [Compound 61] | 73.7 |
| CN(C)CC(=O)[O][Pt]1([O]C(=O)CCCCCN2C(=O)C=CC2=O)[O]C(=O)C(=O)[O]1.N[C@@H]1CCCC[C@H]1N [Compound 62] | 74.5 |
| CCCCCCCCCCCCCCCCNC(=O)[O][Pt]1([O]C(=O)CN(C)C)[O]C(=O)C(=O)[O]1.N[C@@H]1CCCC[C@H]1N [Compound 63] | 75.7 |
| CCCCCCCCCCCCCCCCCCNC(=O)[O][Pt]1([O]C(=O)CN(C)C)[O]C(=O)C(=O)[O]1.N[C@@H]1CCCC[C@H]1N [Compound 64] | 82.2 |
| CCCCCCCCCCCCCCCC(=O)[O][Pt]1([O]C(=O)CN(C)C)[O]C(=O)C(=O)[O]1.N[C@@H]1CCCC[C@H]1N [Compound 65] | 74.6 |
| CCCCCCCCCCCCCCCCCC(=O)[O][Pt]1([O]C(=O)CN(C)C)[O]C(=O)C(=O)[O]1.N[C@@H]1CCCC[C@H]1N [Compound 66] | 77.5 |

Test system: HCT116, HT29, LoVo and Ls513 (human colorectal cancer cell lines)
Test: Cytotoxicity to Oxaliplatin-sensitive cell lines
Assay type: cell-based
Settings: not given

| Structure (SMILES) | IC50 |
| --- | --- |
| O=C1[O][Pt]2([NH][C@@H]3CCCC[C@H]3[NH]2)[O]C1=O [Oxaliplatin] | about submicromolar level |

Test system: healthy mice
Test: not given
Settings: 3 μmol/kg
Procedure: In order to find the optimal dosage, we evaluated the effect of different doses of Oxaliplatin and prodrug on the health of healthy mice. In the same dosing way as in the treatment, the mice were dosed every third day, and then the body weight curve was recorded. […] Then ICP-MS was used to detect the concentration of the platinum drug in blood, tumor, liver and kidney respectively.
FIGS. 5 e-h show radiotherapy-driven release of Oxaliplatin for tumor treatment (n=6 mice per group). e, Tumor volume in individual mouse. f, Mean volume of tumors. The prodrug was injected intravenously for a total of 4 injections at a dose of 30 μmol/kg. One hour after intravenous injection, the tumor site in the irradiation group was irradiated with 4 Gy X-rays. Tumor volume in each group was measured every two days for 40 days. g, Survival curves of mice. According to the guidelines of Peking University Animal Ethics Committee, mice were sacrificed when the tumor volume reached 1500 mm^3. h, Body weight curves of mice.

| Structure (SMILES) | side effects from long-term survival and body weight curves |
| --- | --- |
| O=C1[O][Pt]2([NH][C@@H]3CCCC[C@H]3[NH]2)[O]C1=O [Oxaliplatin] | no apparent side effects |

Same assay, conditions: 3 μmol/kg, dosed every third day

| Structure (SMILES) | body weight of mice |
| --- | --- |
| O=C1[O][Pt]2([NH][C@@H]3CCCC[C@H]3[NH]2)[O]C1=O [Oxaliplatin] | did not reduce the body weight |

Same assay, conditions: 30 μmol/kg, dosed every third day

| Structure (SMILES) | body weight of mice |
| --- | --- |
| O=C1[O][Pt]2([NH][C@@H]3CCCC[C@H]3[NH]2)[O]C1=O [Oxaliplatin] | lost severe weight |

Same assay, conditions: more than 10 μmol/kg

| Structure (SMILES) | side effects (weight loss) |
| --- | --- |
| O=C1[O][Pt]2([NH][C@@H]3CCCC[C@H]3[NH]2)[O]C1=O [Oxaliplatin] | significant side effects |

Same assay, conditions: nude mice, intravenous injection

| Structure (SMILES) | maximum tolerated dose |
| --- | --- |
| O=C1[O][Pt]2([NH][C@@H]3CCCC[C@H]3[NH]2)[O]C1=O [Oxaliplatin] | about 3 μmol/kg |

Test system: not listed separately
Test: Ligand release of Pt(IV) complex 1 in different solutions after X-ray irradiation
Assay type: physicochemical
Settings: 100 μM in complete fetal bovine serum (FBS)
Procedure: 2.5 Detection of Ligand Release of Pt(IV) Complex 1 in Different Solutions
A 10 mM stock solution of Pt(IV) complex 1 was prepared, and diluted to 100 μM in H2O. PBS, 5 mM Tyr, Trp, DMEM and CM (complete medium), FBS solution. After X-ray irradiation, 200 μL of ACN was added to each solution. The mixture was centrifuged, and the supernatant was then collected. The operation was repeated 2 more times, and the final concentration was ⅛ of the original concentration. Ligand release was detected by UPLC-MS and quantified by a standard curve of coumarin.

| Structure (SMILES) | reaction yield of ligand release |
| --- | --- |
| CC(=O)[O][Pt]([Cl])([Cl])[O]C(C)=O.N.N [Pt(IV) complex 1] | not much different from that in water |

Same assay, conditions: 100 μM; PBS, 5 mM Tyr, 5 mM Trp, DMEM, CM; X-ray, UPLC-MS

| Structure (SMILES) | release of axial ligands |
| --- | --- |
| CC(=O)[O][Pt]([Cl])([Cl])[O]C(C)=O.N.N [Pt(IV) complex 1] | achieved in all of the above solutions |
